Measured values taken from article PMC8691750, “Euphorbia Factor L2 ameliorates the Progression of K/BxN Serum-Induced Arthritis by Blocking TLR7 Mediated IRAK4/IKKβ/IRF5 and NF-kB Signaling Pathways” (Frontiers in Pharmacology, 2021).

Assays:
[1] = test system: TLR7 (R837) / TLR3 (poly:IC) induced cytokine production in BMDMs; assay: ELISA of IL-1β and IL-6 in supernatant of R837 and/or poly:IC stimulated BMDMs; assay type: cell-based, C57BL/6 mice
Description: RAW264.7 cells, a mouse macrophage cell line, were cultured in DMEM medium containing 10% fetal bovine serum (FBS), 1% penicillin-streptomycin and maintained at 37 °C in 5% CO2 humidified air. Bone marrow-derived macrophages (BMDMs) generation was performed as following description. In brief, bone marrow cells were harvested from tibias and femurs of C57BL/6 mice and differentiated for 7 days in DMEM medium supplemented with 10% FBS, 1% penicillin-streptomycin and 50 ng/ml M-CSF. For human peripheral blood mononuclear cells (PBMCs) preparation, 5 ml peripheral venous blood was obtained from healthy donors in West China Hospital. PBMCs were isolated with Human Lymphocyte Separation Medium (LTS1077, Tian Jing, China) according to the manufacturer’s instructions. The experimental protocols were performed according to the approved guidelines established by the Institutional Human Research Subject Protection Committee of the Ethics Committee of West China Hospital, Sichuan University, China.
(§1) RAW264.7 cells (5×10^5/ml), BMDMs (5×10^5/ml) and PBMCs (2×10^6/ml) were plated in 96-well plates and incubated overnight. […] For the anti-inflammatory molecular mechanism study, RAW264.7 cells (5×10^5/ml) were plated in 96-well plates and stimulated with R837 (20 μg/ml) with or without the addition of NF-κB inhibitor (JSH-23, […]) for 24 h. After 24 h, the culture supernatant was collected for cytokines measurements.
(§2) IL-4, IL-17A and TNF-α in sera from different group mice were measured using CBA Multiplex kit (BD, United States). The concentrations of IL-1β and IL-6 in serum or supernatant were detected by ELISA Kit (MULTI SCIENCES, China) according to the manufacturers’ instructions.

[2] = test system: neutrophils, macrophages and inflammatory monocytes in the blood; assay: Flow cytometry of myeloid cells in peripheral blood of STA mice; assay type: in vivo, C57BL/6 mice; conditions: EFL2 40 mg/kg i.p.
Description: K/BxN serum was collected from K/BxN mice at 8 weeks of age, pooled, aliquoted and stored at -20 °C. K/BxN serum-transfer arthritis (STA) model was induced by intraperitoneal (i.p.) application of 150 μL of serum at day 0. Clinical score for arthritis severity was assessed using a 0–4 point scale for each paw at various time points (0–16 total score) as described previously ([Luo et al., 2011]). 8-week old male C57BL/6 mice were purchased from Dashuo Animal Center (China, Chengdu), maintained at 25°C, and exposed to 12-h light and dark cycles. Mice were fed with standard laboratory chow and water with 1 week of acclimatization. Naive mice were used as the control group. […]
150 μL peripheral blood and the hind ankles were collected on day 5 and 13 post KBx/N serum transfer, respectively. […] Data were acquired using a BD FACSCalibur flow cytometer (BD Biosciences) and were analyzed by using FlowJo software (Version 7.6.1).

LPS-induced lung injury = test system: LPS-induced lung injury; set-up: method as in Zhang et al., 2018; conditions: mice; ref Zhang et al., 2018; cited from earlier work
[3] = test system: TLR7 (R837) / TLR3 (poly:IC) induced cytokine production in RAW264.7 cells; assay: ELISA of IL-1β and IL-6 in supernatant of R837 and/or poly:IC stimulated RAW264.7 cells; assay type: cell-based, mouse
Description: as §1, §2

C=C1C(OC(=O)c2ccccc2)CC2C(C=C(C)C(=O)C3(OC(C)=O)CC(C)C(OC(=O)c4ccccc4)C3C1OC(C)=O)C2(C)C (stereo not drawn) [EFL2, Euphorbia factor L2]
levels of IL-1β and IL-6 in the supernatant ([1]; BMDMs co-stimulated by poly (I:C) and R837, various concentrations of EFL2): to different expent decreased | IL-6 production ([1]; R837-stimulated BMDMs, EFL2 0.1-10 μM): dose-dependently reduced | IL-1β secretion ([1]; R837-stimulated BMDMs, EFL2 at 0.1 μM): effectively inhibit | expansions of three myeloid cells subsets in the blood [2]: more robust suppressive effect | effect on LPS-induced lung injury (LPS-induced lung injury): robust improving effect | inhibitory ability on IL-1β and IL-6 production compared to JSH-23 ([3]; R837-stimulated RAW264.7, EFL2 10 μM): stronger inhibitory ability | IL-6 production ([3]; R837-stimulated RAW264.7, EFL2 0.1-10 μM): dose-dependently reduced | IL-1β secretion ([3]; R837-stimulated RAW264.7, EFL2 at 0.1 μM): effectively inhibit | levels of IL-1β and IL-6 in the supernatant ([3]; RAW264.7 co-stimulated by poly (I:C) and R837, various concentrations of EFL2): to different expent decreased
